Data taken from patent publication US20110263610A1, “COMPOUNDS AND COMPOSITIONS AS ITPKB INHIBITORS” (IRM LLC, priority 2008, published 2011).

Molecular target: T1, ITPKb (Mus musculus, UniProt B2RXC2)
T1 construct: murine ITPKb residues 640-942; MGSDKIHHHHHH (His6 tag from MH4 plasmid) (N); made in house; host or cells: Escherichia coli HK100
T1 sequence (B2RXC2 640-942): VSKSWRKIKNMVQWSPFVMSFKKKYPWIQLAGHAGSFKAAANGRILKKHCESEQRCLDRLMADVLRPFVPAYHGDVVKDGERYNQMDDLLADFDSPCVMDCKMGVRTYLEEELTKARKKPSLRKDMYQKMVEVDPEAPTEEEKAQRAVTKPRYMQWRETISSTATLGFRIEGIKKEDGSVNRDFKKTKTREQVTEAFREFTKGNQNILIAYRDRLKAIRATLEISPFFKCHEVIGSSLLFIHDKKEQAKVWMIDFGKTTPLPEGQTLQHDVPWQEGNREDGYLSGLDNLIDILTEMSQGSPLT
Experiment: Biochemical measurement of ITPKb activity (Kinase-Glo ATP depletion assay); inhibiting the phosphorylation of IP3 to IP4
Parameters: species or system murine
Conditions: Table 1; inhibiting the phosphorylation of IP3 to IP4; read-out: IC50
Experimental: Compounds of the present invention are assayed to measure their capacity to inhibit ITPKb according to the following assays.
The DNA sequence encoding murine ITPKb residues 640-942 is amplified from a full-length construct in mammalian expression vector pKDNZ by PCR. The 3′-primer incorporates a stop codon and an overhanging PacI site. The product is digested with Pad before being ligated into the MH4 plasmid which has been prepared by digestion with PmlI and PacI. Cloning into the MH4 plasmid adds the sequence MGSDKIHHHHHH to the N-terminus of the translated region. Mutant enzymes are made by site-directed mutagenesis using the Stratagene Quikchange kit.
ITPKb is expressed in the HK100 strain of Escherichia coli. Typically, a 4 L batch of cells is grown in LB with […] ampicillin to 0.5 A600 at 30 degrees C., before induction with 0.02% L-arabinose for 6 hours. Cells are harvested by centrifugation, and pellets are resuspended in 50 mL of 50 mM Tris (pH 8), 100 mM NaCl, 1 mM TCEP, and 0.1 mg/mL lysozyme, with 1 Complete protease inhibitor tablet (Roche). Cells are disrupted by sonication, and debris is removed by centrifugation for 40 minutes at 35000 g.
Initial purification is performed using three nickel-Sepharose Hi-Trap HP 1 mL columns (Amersham) connected in series. After application of the pellet supernatants, the bound material is washed with 20 mM Tris (pH 8.0), 20 mM imidazole, 10% glycerol (v/v), and 1 mM TCEP before elution with an imidazole gradient up to 200 mM.
Fractions containing ITPKb are identified by SDS-PAGE, and the pure fractions are concentrated and buffer exchanged using centriprep 20 15 kDa columns into 20 mM Tris (pH 8), 200 mM KCl, 5 mM MgCl2, 0.5 mM DTT, 10% glycerol, 1 μM IP3, and 20 μM ATP to a final protein concentration of 7 mg/mL.
ITPKb activity is determined using the Kinase-Glo (Promega) ATP depletion assay. The assay reaction buffer consists of 50 mM Tris (pH 8.0), 100 mM NaCl, 1 mM DTT, 10% glycerol, 5 mM MgCl2, 1 μM ATP, and 10 μM IP3 (Alexis Biochemicals). 50 nl of inhibitor is then added to each 40 μL reaction followed by a 10 μL addition of purified ITPKb (final concentration of 60 nM). The reaction mixture is incubated for 60 minutes at room temperature and stopped by the addition of an equal volume of kinase-glo reagent (Promega). Luminescence is measured using a Molecular Devices Acquest instrument.

Question: How did the IC50 turn out when C[C@@H]1CN(Cc2c[nH]nc2-c2ccc3cnccc3c2)CCN1c1ccc(C(F)(F)F)cn1 [Example 20] was run?
Answer: 11 nM

Question: Which IC50 does the source give for C[C@@H]1CN(Cc2c[nH]nc2-c2ccc(C#N)c(=O)[nH]2)CCN1c1ccc(C(F)(F)F)cn1 [Example 21] here?
Answer: 49 nM

Question: For FC(F)(F)c1ccc(N2CCN(Cc3c[nH]nc3-c3cccs3)CC2)nc1 [Example 22], which IC50 is on record?
Answer: 4320 nM

Question: With Cc1nc(-c2n[nH]cc2CN2CCN(c3ccc(C(F)(F)F)cn3)[C@H](C)C2)[nH]c1C [Example 25] as the molecule, how does the IC50 read?
Answer: > 10000 nM

Question: Which IC50 does the source give for C[C@@H]1CN(Cc2c[nH]nc2-c2nc3c([nH]2)CCCC3)CCN1c1ccc(C(F)(F)F)cn1 [Example 26] here?
Answer: 5010 nM

Question: For C[C@@H]1CN(Cc2c[nH]nc2-c2nc3cc(F)ccc3[nH]2)CCN1c1ccc(C(F)(F)F)cn1 [Example 27], which IC50 is on record?
Answer: 9800 nM

Question: Which IC50 does the source give for C[C@@H]1CN(Cc2c[nH]nc2-c2nc3cc(C#N)ccc3[nH]2)CCN1c1ccc(C(F)(F)F)cn1 [Example 28] here?
Answer: 2450 nM

Question: N#Cc1c[nH]c(-c2n[nH]cc2CN2CCN(c3ccc(C(F)(F)F)cn3)[C@H](C(F)(F)F)C2)c1 [Example 29] was tested. Which IC50 did it give?
Answer: 9 nM

Question: How did the IC50 turn out when C[C@@H]1CN(Cc2c[nH]nc2C(=O)Nc2nc[nH]c2C#N)CCN1c1ccc(C(F)(F)F)cn1 [Example 30] was run?
Answer: > 10000 nM

Question: For C[C@@H]1CN(Cc2c[nH]nc2C(=O)Nc2cc(-c3ccco3)n[nH]2)CCN1c1ccc(C(F)(F)F)cn1 [Example 31], which IC50 is on record?
Answer: 5330 nM

Question: With Cc1cc(NC(=O)c2n[nH]cc2CN2CCN(c3ccc(C(F)(F)F)cn3)[C@H](C)C2)n(CCN(C)C)n1 [Example 32] as the molecule, how does the IC50 read?
Answer: 6190 nM

Question: C[C@@H]1CN(Cc2c[nH]nc2C(=O)Nc2n[nH]cc2C#N)CCN1c1ccc(C(F)(F)F)cn1 [Example 33] was tested. Which IC50 did it give?
Answer: > 10000 nM

Same assay, conditions: Table 2; inhibiting the phosphorylation of IP3 to IP4; read-out: IC50

Question: Which IC50 does the source give for C[C@@H]1CN(Cc2c[nH]nc2-c2cc3ccccc3[nH]2)CCN1c1ccc(C(F)(F)F)cn1 [Example 8, (R)-2-(4-((3-methyl-4-(5-(trifluoromethyl)pyridin-2-yl)piperazin-1-yl)methyl)-1H-pyrazol-3-yl)-1H-indole] here?
Answer: 192 nM

Question: Which IC50 does the source give for C[C@@H]1CN(Cc2c[nH]nc2C2=CCNCC2)CCN1c1ccc(C(F)(F)F)cn1 [Example 9, (R)-2-methyl-4-((3-(1,2,3,6-tetrahydropyridin-4-yl)-1H-pyrazol-4-yl)methyl)-1-(5-(trifluoromethyl)pyridin-2-yl)piperazine] here?
Answer: 278 nM

Question: C[C@@H]1CN(Cc2c[nH]nc2C2=CCN(C=O)CC2)CCN1c1ccc(C(F)(F)F)cn1 [Example 10, (R)-4-(4-((3-methyl-4-(5-(trifluoromethyl)pyridin-2-yl)piperazin-1-yl)methyl)-1H-pyrazol-3-yl)-5,6-dihydropyridine-1(2H)-carbaldehyde] was tested. Which IC50 did it give?
Answer: 10 nM

Question: Which IC50 does the source give for C[C@@H]1CN(Cc2c[nH]nc2-c2nc(C(F)(F)F)c[nH]2)CCN1c1ccc(C(F)(F)F)cn1 [Example 11, (R)-2-methyl-4-((3-(4-(trifluoromethyl)-1H-imidazol-2-yl)-1H-pyrazol-4-yl)methyl)-1-(5-(trifluoromethyl)pyridin-2-yl)piperazine] here?
Answer: 1480 nM

Question: For C[C@@H]1CN(Cc2c[nH]nc2-c2nc(C(=N)N)c[nH]2)CCN1c1ccc(C(F)(F)F)cn1 [Example 12, (R)-2-(4-((3-methyl-4-(5-(trifluoromethyl)pyridin-2-yl)piperazin-1-yl)methyl)-1H-pyrazol-3-yl)-1H-imidazole-4-carboximidamide], which IC50 is on record?
Answer: 475 nM

Question: Which IC50 does the source give for C[C@@H]1CN(Cc2c[nH]nc2-c2nc(C#N)c[nH]2)CCN1c1ccc(C(F)(F)F)cn1 [Example 13, (R)-2-(4-((3-methyl-4-(5-(trifluoromethyl)pyridin-2-yl)piperazin-1-yl)methyl)-1H-pyrazol-3-yl)-1H-imidazole-4-carbonitrile] here?
Answer: 102 nM

Question: Which IC50 does the source give for C[C@@H]1CN(Cc2c[nH]nc2-c2nc(C(N)=O)c[nH]2)CCN1c1ccc(C(F)(F)F)cn1 [Example 14, (R)-2-(4-((3-methyl-4-(5-(trifluoromethyl)pyridin-2-yl)piperazin-1-yl)methyl)-1H-pyrazol-3-yl)-1H-imidazole-4-carboxamide] here?
Answer: 24 nM

Question: How did the IC50 turn out when C[C@@H]1CN(Cc2c[nH]nc2-c2nc(-c3ccccc3)c[nH]2)CCN1c1ccc(C(F)(F)F)cn1 [Example 15, (R)-2-methyl-4-((3-(4-phenyl-1H-imidazol-2-yl)-1H-pyrazol-4-yl)methyl)-1-(5-(trifluoromethyl)pyridin-2-yl)piperazine] was run?
Answer: 1230 nM

Question: With C[C@@H]1CN(Cc2c[nH]nc2-c2nc3cnccc3[nH]2)CCN1c1ccc(C(F)(F)F)cn1 [Example 16, (R)-2-(4-((3-methyl-4-(5-(trifluoromethyl)pyridin-2-yl)piperazin-1-yl)methyl)-1H-pyrazol-3-yl)-1H-imidazo[4,5-c]pyridine] as the molecule, how does the IC50 read?
Answer: 975 nM

Question: For C[C@@H]1CN(Cc2c[nH]nc2C=C2NC(=O)NC2=O)CCN1c1ccc(C(F)(F)F)cn1 [Example 17, R-5-((4-((3-methyl-4-(5-(trifluoromethyl)pyridin-2-yl)piperazin-1-yl)methyl)-1H-pyrazol-3-yl)methylene)imidazolidine-2,4-dione], which IC50 is on record?
Answer: 531 nM

Question: With C[C@@H]1CN(Cc2c[nH]nc2C(=O)Nc2ccncc2)CCN1c1ccc(C(F)(F)F)cn1 [Example 18, (R)-4-((3-methyl-4-(5-(trifluoromethyl)pyridin-2-yl)piperazin-1-yl)methyl)-N-(pyridin-4-yl)-1H-pyrazole-3-carboxamide] as the molecule, how does the IC50 read?
Answer: 449 nM

Question: For C[C@@H]1CN(Cc2n[nH]nc2-c2ccc(C#N)cc2)CCN1c1ccc(C(F)(F)F)cc1 [Example 19, (R)-4-(5-((3-methyl-4-(4-(trifluoromethyl)phenyl)piperazin-1-yl)methyl)-2H-1,2,3-triazol-4-yl)benzonitrile], which IC50 is on record?
Answer: 40 nM

Same assay, conditions: read-out: IC50 in inhibiting the phosphorylation of IP3 to IP4

Question: With C[C@@H]1CN(Cc2c[nH]nc2-c2cc(C#N)c[nH]2)CCN1c1ccc(C(F)(F)F)cn1 [Example 1, (R)-5-(4-((3-methyl-4-(5-(trifluoromethyl)pyridin-2-yl)piperazin-1-yl)methyl)-1H-pyrazol-3-yl)-1H-pyrrole-3-carbonitrile] as the molecule, how does the IC50 read?
Answer: 9 nM

Question: With C[C@@H]1CN(Cc2c[nH]nc2-c2cc(C(N)=O)c[nH]2)CCN1c1ccc(C(F)(F)F)cn1 [Example 2, (R)-5-(4-((3-methyl-4-(5-(trifluoromethyl)pyridin-2-yl)piperazin-1-yl)methyl)-1H-pyrazol-3-yl)-1H-pyrrole-3-carboxamide] as the molecule, how does the IC50 read?
Answer: 3 nM

Question: For CNC(=O)c1c[nH]c(-c2n[nH]cc2CN2CCN(c3ccc(C(F)(F)F)cn3)[C@H](C)C2)c1 [Example 3, (R)—N-methyl-5-(4-((3-methyl-4-(5-(trifluoromethyl)pyridin-2-yl)piperazin-1-yl)methyl)-1H-pyrazol-3-yl)-1H-pyrrole-3-carboxamide], which IC50 is on record?
Answer: 11 nM

Question: With C[C@@H]1CN(Cc2c[nH]nc2-c2ccc(C#N)[nH]2)CCN1c1ccc(C(F)(F)F)cn1 [Example 4, (R)-5-(4-((3-methyl-4-(5-(trifluoromethyl)pyridin-2-yl)piperazin-1-yl)methyl)-1H-pyrazol-3-yl)-1H-pyrrole-2-carbonitrile] as the molecule, how does the IC50 read?
Answer: 81 nM

Question: With C[C@@H]1CN(Cc2c[nH]nc2-c2ccc(C(N)=O)[nH]2)CCN1c1ccc(C(F)(F)F)cn1 [Example 5, (R)-5-(4-((3-methyl-4-(5-(trifluoromethyl)pyridin-2-yl)piperazin-1-yl)methyl)-1H-pyrazol-3-yl)-1H-pyrrole-2-carboxamide] as the molecule, how does the IC50 read?
Answer: 28 nM

Question: Which IC50 does the source give for C[C@@H]1CN(Cc2c[nH]nc2-c2c[nH]c(C#N)c2)CCN1c1ccc(C(F)(F)F)cn1 [Example 6, (R)-4-(4-((3-methyl-4-(5-(trifluoromethyl)pyridin-2-yl)piperazin-1-yl)methyl)-1H-pyrazol-3-yl)-1H-pyrrole-2-carbonitrile] here?
Answer: 6 nM

Question: Which IC50 does the source give for C[C@@H]1CN(Cc2c[nH]nc2-c2c[nH]c(C(N)=O)c2)CCN1c1ccc(C(F)(F)F)cn1 [Example 7, (R)-4-(4-((3-methyl-4-(5-(trifluoromethyl)pyridin-2-yl)piperazin-1-yl)methyl)-1H-pyrazol-3-yl)-1H-pyrrole-2-carboxamide] here?
Answer: 2 nM
